In this experiment the target is Cezanne 1 (Homo sapiens (Human), UniProt Q6GQQ9). The experiment is described as follows: Cezanne 1 biochemical IC50 assay (fluorescence polarisation, TAMRA labelled peptide linked to ubiquitin). The note with it: Cezanne 1 biochemical IC50 assay; 30 min pre-incubation, read after 2 hr at room temperature; read-out: IC50 range. As for the experimental part:
The Cezanne 1 construct was PCR amplified and cloned into a pFLAG-CMV-6c vector (Sigma-Aldrich) with an N-terminal FLAG tag. HEK293T cells were transfected with FLAG-Cezanne 1 using TransIT-LT1 transfection reagent (Mirus) according to the manufacturer's instructions. Cells were harvested 48 hours after transfection. […] The resin was washed two times with low salt buffer and one time with high salt buffer (20 mM Tris, pH 7.5, 500 mM NaCl, 0.5 mM EDTA, 5 mM beta-mercaptoethanol, protease inhibitors (complete mini, Roche) and phosphatase inhibitors (PhosSTOP mini, Roche). To elute the bound Cezanne 1, elution buffer (10 mM Tris, pH 7.5, 150 mM NaCl, 0.5 mM EDTA, 10% glycerol, 0.5% NP40, 5 mM beta-mercaptoethanol, 0.15 mg/ml 3× FLAG peptide (Sigma-Aldrich)) was added to the resin and incubated at 4° C. for 2.5 hours while rotating. The resin was centrifuged at 4000 rpm for 30 seconds, and the supernatant containing purified FLAG-Cezanne 1 was removed and stored at −80° C. […] Dilution plates were prepared at 21 times the final concentration (2100 μM for a final concentration of 100 μM) in 50% DMSO in a 96-well polypropylene V-bottom plate (Greiner #651201). […] Reactions were performed in duplicate in black 384 well plates (small volume, Greiner 784076) in a final reaction volume of 21 μl. Either 1 μl of 50% DMSO or diluted compound was added to the plate. Cezanne 1 was diluted in reaction buffer (40 mM Tris, pH 7.5, 0.005% Tween 20, 0.5 mg/ml BSA, 5 mM—beta-mercaptoethanol) to the equivalent of 0.005 μl/well and 10 μl of diluted Cezanne 1 was added to the compound. Enzyme and compound were incubated for 30 min at room temp. Reactions were initiated by the addition of 50 nM of TAMRA labelled peptide linked to ubiquitin via an iso-peptide bond as fluorescence polarisation substrate. Reactions were read immediately after addition of substrate and following a 2 hr incubation at room temperature. Readings were performed on a Pherastar Plus (BMG Labtech). λ Excitation 540 nm; λ Emission 590 nm.
On the technique in general: In fluorescence polarisation assays a small probe gives low polarisation when free and higher when bound to something large.

The structures appear in SMILES notation. A value given as a limit tells only on which side of the number the result lay.

Cezanne 1, sequence (Q6GQQ9 whole entry): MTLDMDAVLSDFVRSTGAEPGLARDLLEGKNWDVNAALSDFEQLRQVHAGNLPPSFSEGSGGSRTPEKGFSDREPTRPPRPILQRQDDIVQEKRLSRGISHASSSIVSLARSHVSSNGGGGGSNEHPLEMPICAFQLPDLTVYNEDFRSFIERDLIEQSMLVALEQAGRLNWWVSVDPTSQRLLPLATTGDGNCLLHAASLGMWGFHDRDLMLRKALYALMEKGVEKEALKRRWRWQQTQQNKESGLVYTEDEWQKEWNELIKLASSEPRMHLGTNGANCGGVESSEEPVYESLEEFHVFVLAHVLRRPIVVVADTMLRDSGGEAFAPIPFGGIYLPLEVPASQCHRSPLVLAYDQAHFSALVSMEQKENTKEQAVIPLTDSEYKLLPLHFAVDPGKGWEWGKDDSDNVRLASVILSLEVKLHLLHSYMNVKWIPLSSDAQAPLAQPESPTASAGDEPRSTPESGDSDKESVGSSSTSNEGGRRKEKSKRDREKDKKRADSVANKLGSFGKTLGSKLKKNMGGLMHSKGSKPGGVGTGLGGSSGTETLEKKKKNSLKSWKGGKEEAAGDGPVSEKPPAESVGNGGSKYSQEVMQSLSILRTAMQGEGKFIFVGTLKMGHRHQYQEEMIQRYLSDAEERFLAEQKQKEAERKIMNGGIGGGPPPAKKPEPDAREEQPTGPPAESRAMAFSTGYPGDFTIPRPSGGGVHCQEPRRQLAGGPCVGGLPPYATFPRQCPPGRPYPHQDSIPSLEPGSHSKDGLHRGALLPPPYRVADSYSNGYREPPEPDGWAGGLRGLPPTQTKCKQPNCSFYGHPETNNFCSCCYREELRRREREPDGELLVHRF

As a reminder, the IC50 is the point on the concentration scale where inhibition reaches its midpoint. For the compound `N#CN1CCC2(Cc3ccc(-c4cccc5[nH]ncc45)cc3NC2=O)C1` (centres unmarked) [Example 133, 7′-(1H-Indazol-4-yl)-2′-oxo-1′,4′-dihydro-2′H-spiro[pyrrolidine-3,3′-quinoline]-1-carbonitrile], the IC50 lay in the range of 100 to 1000 nM. Next, `N#CN1CCC2(Cc3cc(-c4ccc(CN5CCOCC5)cc4)ccc3NC2=O)C1` (centres unmarked) [Example 129, 6′-(4-(Morpholinomethyl)phenyl)-2′-oxo-1′,4′-dihydro-2′H-spiro[pyrrolidine-3,3′-quinoline]-1-carbonitrile]: 100 to 1000 nM. With `Cn1cc(-c2ccc3c(c2)NC(=O)C2(CCN(C#N)C2)C3)cn1` (centres unmarked) [Example 12, 7′-(1-Methyl-1H-pyrazol-4-yl)-2′-oxo-1′,4′-dihydro-2′H-spiro[pyrrolidine-3,3′-quinoline]-1-carbonitrile], the half-inhibitory concentration (IC50) is 1000 to 10000 nM.

On to `COc1ccc(C(C)C)cc1-c1ccc2c(c1)CC1(CCN(C#N)C1)C(=O)N2` (centres unmarked) [Example 101, 6′-(5-Isopropyl-2-methoxyphenyl)-2′-oxo-1′,4′-dihydro-2′H-spiro[pyrrolidine-3,3′-quinoline]-1-carbonitrile], for which the IC50 was in the range of 100 to 1000 nM. On to `N#CN1CCC2(C1)Nc1cccnc1NC2=O` (centres unmarked) [Example 61, 3-Oxo-3,4-dihydro-1H-spiro[pyrido[2,3-b]pyrazine-2,3′-pyrrolidine]-1′-carbonitrile], for which the IC50 was 1000 to 10000 nM. For the compound `Cc1cc(-c2ccc3c(c2)NC(=O)C2(CCN(C#N)C2)C3)ccn1` (centres unmarked) [Example 34, 7′-(2-Methylpyridin-4-yl)-2′-oxo-1′,4′-dihydro-2′H-spiro[pyrrolidine-3,3′-quinoline]-1-carbonitrile], the IC50 fell in the range of 1000 to 10000 nM. The value for `N#CN1CCC2(C1)Nc1ncc(-c3ccccc3)cc1NC2=O` (centres unmarked) [Example 57, 2-Oxo-7-phenyl-1,4-dihydro-2H-spiro[pyrido[2,3-b]pyrazine-3,3′-pyrrolidine]-1′-carbonitrile] was 100 to 1000 nM; that for `Cn1cc(-c2ccc3c(c2)NC(=O)C2(CCN(C#N)C2)C3)ccc1=O` (centres unmarked) [Example 39, 7′-(1-Methyl-6-oxo-1,6-dihydropyridin-3-yl)-2′-oxo-1′,4′-dihydro-2′H-spiro[pyrrolidine-3,3′-quinoline]-1-carbonitrile] was 1000 to 10000 nM; that for `N#CN1CC[C@@]2(C1)Oc1ncccc1NC2=O` [Example 65, (S)-2-Oxo-1,2-dihydrospiro[pyrido[2,3-b][1,4]oxazine-3,3′-pyrrolidine]-1′-carbonitrile] was 1000 to 10000 nM. Next, `CC(=O)Nc1ccc(-c2ccc3c(c2)NC(=O)C2(CCN(C#N)C2)C3)cc1` (centres unmarked) [Example 31, N-(4-(1-Cyano-2′-oxo-1′,4′-dihydro-2′H-spiro[pyrrolidine-3,3′-quinolin]-7′-yl)phenyl)acetamide]: 1000 to 10000 nM; `Cc1noc(C)c1-c1ccc2c(c1)CC1(CCN(C#N)C1)C(=O)N2` (centres unmarked) [Example 124, 6′-(3,5-Dimethylisoxazol-4-yl)-2′-oxo-1′,4′-dihydro-2′H-spiro[pyrrolidine-3,3′-quinoline]-1-carbonitrile]: 100 to 1000 nM. Take `Cn1cc(-c2ccc3c(c2)CC2(CCN(C#N)C2)C(=O)N3)ccc1=O` (centres unmarked) [Example 122, 6′-(1-Methyl-6-oxo-1,6-dihydropyridin-3-yl)-2′-oxo-1′,4′-dihydro-2′H-spiro[pyrrolidine-3,3′-quinoline]-1-carbonitrile]: the half-inhibitory concentration (IC50) is 1000 to 10000 nM. The value for `N#Cc1ccc(-c2cnc3c(c2)NC(=O)[C@@]2(CCN(C#N)C2)O3)cc1` [Example 70, (S)-7-(4-Cyanophenyl)-2-oxo-1,2-dihydrospiro[pyrido[2,3-b][1,4]oxazine-3,3′-pyrrolidine]-1′-carbonitrile] was 100 to 1000 nM; that for `COCCn1ncc2c(-c3cnc4c(c3)NC(=O)C3(CCN(C#N)C3)O4)cccc21` (centres unmarked) [Example 140, 7-(1-(2-Methoxyethyl)-1H-indazol-4-yl)-2-oxo-1,2-dihydrospiro[pyrido[2,3-b][1,4]oxazine-3,3′-pyrrolidine]-1′-carbonitrile] was 100 to 1000 nM. With `N#CN1CCC2(Cc3ccc(-c4ccc(C(=O)N5CCOCC5)cc4)cc3NC2=O)C1` (centres unmarked) [Example 37, 7′-(4-(Morpholine-4-carbonyl)phenyl)-2′-oxo-1′,4′-dihydro-2′H-spiro[pyrrolidine-3,3′-quinoline]-1-carbonitrile], the IC50 was 1000 to 10000 nM. The value for `CNC(=O)c1ccc(-c2ccc3c(c2)NC(=O)C2(CCN(C#N)C2)C3)cn1` (centres unmarked) [Example 15, 5-(1-Cyano-2′-oxo-1′,4′-dihydro-2′H-spiro[pyrrolidine-3,3′-quinolin]-7′-yl)-N-methylpicolinamide] was 1000 to 10000 nM; that for `C[C@H]1NC(=O)C2(CCN(C#N)C2)NC1=O` (stereo partly drawn) [Example 76, (8R)-8-Methyl-7,10-dioxo-2,6,9-triazaspiro[4.5]decane-2-carbonitrile] was 1000 to 10000 nM; that for `N#CN1CCC2(CNc3ncccc3NC2=O)C1` (centres unmarked) [Example 86, 2-Oxo-1,2,4,5-tetrahydrospiro[pyrido[2,3-b][1,4]diazepine-3,3′-pyrrolidine]-1′-carbonitrile] was 100 to 1000 nM. On to `CN(C)C(=O)c1cccc(-c2ccc3c(c2)NC(=O)C2(CCN(C#N)C2)C3)c1` (centres unmarked) [Example 30, 3-(1-Cyano-2′-oxo-1′,4′-dihydro-2′H-spiro[pyrrolidine-3,3′-quinolin]-7′-yl)-N,N-dimethylbenzamide], for which the half-maximal inhibitory concentration (IC50) was in the range of 100 to 1000 nM.

As for `N#CN1CCC2(Cc3ccc(-c4ccc(S(=O)(=O)N5CCOCC5)cc4)cc3NC2=O)C1` (centres unmarked) [Example 32, 7′-(4-(Morpholinosulfonyl)phenyl)-2′-oxo-1′,4′-dihydro-2′H-spiro[pyrrolidine-3,3′-quinoline]-1-carbonitrile], the IC50 fell in the range of 1000 to 10000 nM. Next, `N#CN1CCC2(Cc3cc(-c4cccc(F)c4)ccc3NC2=O)C1` (centres unmarked) [Example 45, 6′-(3-Fluorophenyl)-2′-oxo-1′,4′-dihydro-2′H-spiro[pyrrolidine-3,3′-quinoline]-1-carbonitrile]: 100 to 1000 nM. With `N#CN1CC[C@]2(CCNC2=O)C1` [Example 63, (R)-6-Oxo-2,7-diazaspiro[4.4]nonane-2-carbonitrile], the IC50 fell in the range of 1000 to 10000 nM. For the compound `N#CN1CCC2(Cc3cc(-c4cccc(N5CCCCC5)c4)ccc3NC2=O)C1` (centres unmarked) [Example 118, 2′-Oxo-6′-(3-(piperidin-1-yl)phenyl)-1′,4′-dihydro-2′H-spiro[pyrrolidine-3,3′-quinoline]-1-carbonitrile], the IC50 is 100 to 1000 nM. `Cn1ncc2cc(-c3ccc4c(c3)NC(=O)C3(CCN(C#N)C3)C4)ccc21` (centres unmarked) [Example 24, 7′-(1-Methyl-1H-indazol-5-yl)-2′-oxo-1′,4′-dihydro-2′H-spiro[pyrrolidine-3,3′-quinoline]-1-carbonitrile]: the half-inhibitory concentration (IC50) is under 100 nM. Regarding `CC(=O)Nc1cccc(-c2ccc3c(c2)NC(=O)C2(CCN(C#N)C2)C3)c1` (centres unmarked) [Example 29, N-(3-(1-Cyano-2′-oxo-1′,4′-dihydro-2′H-spiro[pyrrolidine-3,3′-quinolin]-7′-yl)phenyl)acetamide], the 50% inhibitory concentration (IC50) was 1000 to 10000 nM. As to `CN(C)C(=O)c1ccc(-c2ccc3c(c2)NC(=O)C2(CCN(C#N)C2)C3)cc1` (centres unmarked) [Example 89, 4-(1-Cyano-2′-oxo-1′,4′-dihydro-2′H-spiro[pyrrolidine-3,3′-quinolin]-7′-yl)-N,N-dimethylbenzamide], the concentration for half-maximal inhibition (IC50) is 1000 to 10000 nM. The value for `N#CN1CCC2(Cc3cc(-c4ccc(C(=O)NCc5ccccc5)cc4)ccc3NC2=O)C1` (centres unmarked) [Example 127, N-Benzyl-4-(1-cyano-2′-oxo-1′,4′-dihydro-2′H-spiro[pyrrolidine-3,3′-quinolin]-6′-yl)benzamide] was 100 to 1000 nM; that for `N#CN1CCC2(Cc3cc(-c4cccc(OC(F)(F)F)c4)ccc3NC2=O)C1` (centres unmarked) [Example 95, 2′-Oxo-6′-(3-(trifluoromethoxy)phenyl)-1′,4′-dihydro-2′H-spiro[pyrrolidine-3,3′-quinoline]-1-carbonitrile] was 100 to 1000 nM. As for `N#CN1CCC2(C1)Oc1nc(C(=O)Nc3ccc(F)cc3)ccc1NC2=O` (centres unmarked) [Example 141, 1′-Cyano-N-(4-fluorophenyl)-2-oxo-1,2-dihydrospiro[pyrido[2,3-b][1,4]oxazine-3,3′-pyrrolidine]-6-carboxamide], the IC50 is 1000 to 10000 nM. The value for `CC1CC2(CCN(C#N)C2)C(=O)N1` (single isomer, unassigned) [Example 83, 8-Methyl-6-oxo-2,7-diazaspiro[4.4]nonane-2-carbonitrile] was over 10000 nM; that for `N#CN1CCC2(CC(c3ccccc3)NC2=O)C1` (single isomer, unassigned) [Example 84, 6-Oxo-8-phenyl-2,7-diazaspiro[4.4]nonane-2-carbonitrile] was over 10000 nM. Next, `Cn1nccc1-c1ccc2c(c1)CC1(CCN(C#N)C1)C(=O)N2` (centres unmarked) [Example 94, 6′-(1-Methyl-1H-pyrazol-5-yl)-2′-oxo-1′,4′-dihydro-2′H-spiro[pyrrolidine-3,3′-quinoline]-1-carbonitrile]: 100 to 1000 nM.

The record behind these values is patent US10654853B2, “Spiro-condensed pyrrolidine derivatives as deubiquitylating enzymes (DUB) inhibitors” (MISSION THERAPEUTICS LIMITED, priority 2016, dated 2020).
